Data taken from paper PMC3898987 (Bioorganic & Medicinal Chemistry, 2013).
Positions count from the first letter of the chain named.

Key:
[1] = biological target: T1, 5-HT3AB receptor, 5-HT3B subunit F130A (Homo sapiens, UniProt O95264+P46098, F123A); assay: FlexStation membrane potential dye functional assay, HEK293 cells; conditions: 5-HT concentration-response, 5-HT3AB with 5-HT3B F130A
T1 sequence (P46098 24-478): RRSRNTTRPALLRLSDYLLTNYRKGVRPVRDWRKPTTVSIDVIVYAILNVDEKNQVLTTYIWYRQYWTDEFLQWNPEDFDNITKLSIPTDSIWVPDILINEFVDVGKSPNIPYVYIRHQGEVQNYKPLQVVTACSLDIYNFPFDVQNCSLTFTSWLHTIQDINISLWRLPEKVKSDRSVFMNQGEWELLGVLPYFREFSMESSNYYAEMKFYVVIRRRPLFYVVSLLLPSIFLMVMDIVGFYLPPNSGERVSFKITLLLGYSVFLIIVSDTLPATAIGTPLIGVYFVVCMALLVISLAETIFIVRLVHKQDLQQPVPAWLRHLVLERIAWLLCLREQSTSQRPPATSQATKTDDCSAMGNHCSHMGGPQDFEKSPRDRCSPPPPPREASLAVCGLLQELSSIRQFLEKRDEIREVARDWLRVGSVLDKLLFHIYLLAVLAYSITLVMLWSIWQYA
T1 sequence (O95264 22-441 F123A): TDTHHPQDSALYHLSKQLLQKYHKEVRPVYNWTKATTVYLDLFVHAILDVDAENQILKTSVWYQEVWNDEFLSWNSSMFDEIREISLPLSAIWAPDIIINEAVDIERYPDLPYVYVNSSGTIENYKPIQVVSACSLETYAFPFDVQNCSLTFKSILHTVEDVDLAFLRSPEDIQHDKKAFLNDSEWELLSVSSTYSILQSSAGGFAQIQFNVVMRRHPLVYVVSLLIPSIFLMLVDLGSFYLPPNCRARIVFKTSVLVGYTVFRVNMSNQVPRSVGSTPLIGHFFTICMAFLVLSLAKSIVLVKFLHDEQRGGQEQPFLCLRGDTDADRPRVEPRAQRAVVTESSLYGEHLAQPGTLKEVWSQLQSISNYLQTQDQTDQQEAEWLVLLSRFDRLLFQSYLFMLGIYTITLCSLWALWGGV
Protocol: Human embryonic kidney (HEK) 293 cells were cultured on 90 mm tissue culture plates at 37 °C and 7% CO2 in a humidified atmosphere. They were grown in DMEM:F12 (Dulbecco’s Modified Eagle’s Medium/Nutrient Mix F12 (1:1)) with GlutaMAX I™ containing 10% fetal calf serum and passaged when confluent. […] For FlexStation assays, transfected cells were plated on 96-well plates and incubated 1–2 days before assay.
Fluorometric studies were undertaken using a FlexStation® (Molecular Devices, Sunnyvale, CA, USA) as previously described.[11]
Fluorescence was measured every 2 s for 200 s. […] Concentration–response and inhibition curves were obtained for each mutant, and the fluorescence values were normalized to the maximal response.

[2] = biological target: T2, 5-HT3AB receptor, 5-HT3B subunit H73A (Homo sapiens, UniProt O95264+P46098, H66A); assay: radioligand saturation binding, transfected HEK293 membranes; conditions: [3H]-palonosetron saturation, 5-HT3AB with 5-HT3B H73A, 4 °C, 24 h
T2 sequence (P46098 24-478): T1 sequence (P46098 24-478)
T2 sequence (O95264 22-441 H66A): T1 sequence (O95264 22-441 F123A) with H45A, A102F
Protocol: (§1) Human embryonic kidney (HEK) 293 cells were cultured on 90 mm tissue culture plates at 37 °C and 7% CO2 in a humidified atmosphere. They were grown in DMEM:F12 (Dulbecco’s Modified Eagle’s Medium/Nutrient Mix F12 (1:1)) with GlutaMAX I™ containing 10% fetal calf serum and passaged when confluent. For radioligand binding studies, cells in 90 mm dishes were transfected at 60–70% confluency using polyethyleneimine and incubated for 3–4 days before use. For FlexStation assays, transfected cells were plated on 96-well plates and incubated 1–2 days before assay. […]
(§2) Eight-point binding assays were performed to produce saturation binding curves. […] Radioactive counts were measured using a Beckman LS6000SC liquid scintillation counter (Fullerton, California, USA).
(§3) Data were analyzed by iterative curve fitting using GraphPad Prism v5 (San Diego, CA) according to the following equation: B=Bmax[L]^n/kdn+[L]^n where B is the amount of bound radioligand, Bmax is the maximum specific binding at equilibrium, [L] is the concentration of radioligand, Kd is the equilibrium dissociation constant of the radioligand, and n is the Hill coefficient.

[3] = biological target: T3, 5-HT3A receptor Y73S (Homo sapiens, UniProt P46098, Y68S); assay: as above; conditions: [3H]-palonosetron saturation, 5-HT3A Y73S, 4 °C, 24 h
T3 sequence (P46098 24-478 Y68S): T1 sequence (P46098 24-478) with Y45S
Protocol: as §1, §2, §3

[4] = biological target: T4, 5-HT3A receptor W183C (Homo sapiens, UniProt P46098, W178C); assay: as above; conditions: [3H]-palonosetron saturation, 5-HT3A W183C, 4 °C, 24 h, NB = no binding
T4 sequence (P46098 24-478 W178C): T1 sequence (P46098 24-478) with W155C
Protocol: as §1, §2, §3

## NCCc1c[nH]c2ccc(O)cc12 [5-HT, serotonin]
[1]
  Hill Coefficient: 1.4 ± 0.2

## O=C1c2cccc3c2[C@H](CCC3)CN1[C@@H]1CN2CCC1CC2 [Palonosetron]
[2]
  Kd: 0.14 ± 0.02 nM
[3]
  Kd: 0.61 ± 0.11 nM
[4]
  Kd: > 2 nM
[4]; listed as [^3H]palonosetron
  Kd: no saturable, specific binding
